Data as given in patent US9718813B2, “Imidazolin-5-one derivative useful as FASN inhibitors for the treatment of cancer” (Janssen Pharmaceutica, NV, priority 2013, dated 2017).

biological target: hFASN enzyme (full length) (Homo sapiens (Human), UniProt P49327); test: Fatty Acid Synthase (FASN) Inhibition Scintillation Proximity Assay; type: biochemical; settings: 3H-acetyl-CoA and malonyl-CoA substrates, SPA, mean if tested more than once
Protocol: In this assay, inhibition of FASN activity is measured using ^3H-acetyl-CoA and malonyl-CoA as substrates. ^3H-Acetyl CoA is converted to ^3H-palmitate through a series of reactions by the FASN protein, which contains 7 functional domains and carries out 7 enzymatic reactions to ultimately produce ^3H-palmitate. The assay principle is based upon the fact that ^3H-acetyl-CoA is hydrophilic and the end product, ^3H-palmitate is hydrophobic.
10 μL assay buffer (100 mM KH2PO4 pH 7.5, 1 mM DTT) (20 μL in blanks) was added to a 384-well white Opti Plate plate (Perkin Elmer). 0.9 μL test compound (at concentrations of 30 μM, 10 μM, 3 μM, 1 μM, 0.30 μM, 0.10 μM, 0.03 μM and 0.01 μM)/DMSO and 10 μL hFASN enzyme (full length, 300 ng, purified in house) or 10 μL assay buffer was added to the wells. […] The reaction was stopped by adding 20 μL Streptavidin coupled imaging beads (25 mg/ml). After incubation for 30 minutes at room temperature in the dark, the 384 well plate was centrifuged at 1500 rpm for 3 minutes and was measured after at least 24 hrs by the LEADseeker™, measuring emission using a 610±20 nm pass filter.
Raw data generated by the instrument were normalized to % Controlmin values, which were calculated as: % Controlmin=100*(x−mLC)/(mHC−mLC)
where mLC and mHC were the means of the low control wells and high control wells on the plate, after manual exclusion of outliers. A plot of Controlmin versus test compound concentration was fitted to a 4-parameter logistic curve using a non-linear least squares regression method.

hFASN enzyme (full length), sequence (P49327 whole entry, the tested form may be a part): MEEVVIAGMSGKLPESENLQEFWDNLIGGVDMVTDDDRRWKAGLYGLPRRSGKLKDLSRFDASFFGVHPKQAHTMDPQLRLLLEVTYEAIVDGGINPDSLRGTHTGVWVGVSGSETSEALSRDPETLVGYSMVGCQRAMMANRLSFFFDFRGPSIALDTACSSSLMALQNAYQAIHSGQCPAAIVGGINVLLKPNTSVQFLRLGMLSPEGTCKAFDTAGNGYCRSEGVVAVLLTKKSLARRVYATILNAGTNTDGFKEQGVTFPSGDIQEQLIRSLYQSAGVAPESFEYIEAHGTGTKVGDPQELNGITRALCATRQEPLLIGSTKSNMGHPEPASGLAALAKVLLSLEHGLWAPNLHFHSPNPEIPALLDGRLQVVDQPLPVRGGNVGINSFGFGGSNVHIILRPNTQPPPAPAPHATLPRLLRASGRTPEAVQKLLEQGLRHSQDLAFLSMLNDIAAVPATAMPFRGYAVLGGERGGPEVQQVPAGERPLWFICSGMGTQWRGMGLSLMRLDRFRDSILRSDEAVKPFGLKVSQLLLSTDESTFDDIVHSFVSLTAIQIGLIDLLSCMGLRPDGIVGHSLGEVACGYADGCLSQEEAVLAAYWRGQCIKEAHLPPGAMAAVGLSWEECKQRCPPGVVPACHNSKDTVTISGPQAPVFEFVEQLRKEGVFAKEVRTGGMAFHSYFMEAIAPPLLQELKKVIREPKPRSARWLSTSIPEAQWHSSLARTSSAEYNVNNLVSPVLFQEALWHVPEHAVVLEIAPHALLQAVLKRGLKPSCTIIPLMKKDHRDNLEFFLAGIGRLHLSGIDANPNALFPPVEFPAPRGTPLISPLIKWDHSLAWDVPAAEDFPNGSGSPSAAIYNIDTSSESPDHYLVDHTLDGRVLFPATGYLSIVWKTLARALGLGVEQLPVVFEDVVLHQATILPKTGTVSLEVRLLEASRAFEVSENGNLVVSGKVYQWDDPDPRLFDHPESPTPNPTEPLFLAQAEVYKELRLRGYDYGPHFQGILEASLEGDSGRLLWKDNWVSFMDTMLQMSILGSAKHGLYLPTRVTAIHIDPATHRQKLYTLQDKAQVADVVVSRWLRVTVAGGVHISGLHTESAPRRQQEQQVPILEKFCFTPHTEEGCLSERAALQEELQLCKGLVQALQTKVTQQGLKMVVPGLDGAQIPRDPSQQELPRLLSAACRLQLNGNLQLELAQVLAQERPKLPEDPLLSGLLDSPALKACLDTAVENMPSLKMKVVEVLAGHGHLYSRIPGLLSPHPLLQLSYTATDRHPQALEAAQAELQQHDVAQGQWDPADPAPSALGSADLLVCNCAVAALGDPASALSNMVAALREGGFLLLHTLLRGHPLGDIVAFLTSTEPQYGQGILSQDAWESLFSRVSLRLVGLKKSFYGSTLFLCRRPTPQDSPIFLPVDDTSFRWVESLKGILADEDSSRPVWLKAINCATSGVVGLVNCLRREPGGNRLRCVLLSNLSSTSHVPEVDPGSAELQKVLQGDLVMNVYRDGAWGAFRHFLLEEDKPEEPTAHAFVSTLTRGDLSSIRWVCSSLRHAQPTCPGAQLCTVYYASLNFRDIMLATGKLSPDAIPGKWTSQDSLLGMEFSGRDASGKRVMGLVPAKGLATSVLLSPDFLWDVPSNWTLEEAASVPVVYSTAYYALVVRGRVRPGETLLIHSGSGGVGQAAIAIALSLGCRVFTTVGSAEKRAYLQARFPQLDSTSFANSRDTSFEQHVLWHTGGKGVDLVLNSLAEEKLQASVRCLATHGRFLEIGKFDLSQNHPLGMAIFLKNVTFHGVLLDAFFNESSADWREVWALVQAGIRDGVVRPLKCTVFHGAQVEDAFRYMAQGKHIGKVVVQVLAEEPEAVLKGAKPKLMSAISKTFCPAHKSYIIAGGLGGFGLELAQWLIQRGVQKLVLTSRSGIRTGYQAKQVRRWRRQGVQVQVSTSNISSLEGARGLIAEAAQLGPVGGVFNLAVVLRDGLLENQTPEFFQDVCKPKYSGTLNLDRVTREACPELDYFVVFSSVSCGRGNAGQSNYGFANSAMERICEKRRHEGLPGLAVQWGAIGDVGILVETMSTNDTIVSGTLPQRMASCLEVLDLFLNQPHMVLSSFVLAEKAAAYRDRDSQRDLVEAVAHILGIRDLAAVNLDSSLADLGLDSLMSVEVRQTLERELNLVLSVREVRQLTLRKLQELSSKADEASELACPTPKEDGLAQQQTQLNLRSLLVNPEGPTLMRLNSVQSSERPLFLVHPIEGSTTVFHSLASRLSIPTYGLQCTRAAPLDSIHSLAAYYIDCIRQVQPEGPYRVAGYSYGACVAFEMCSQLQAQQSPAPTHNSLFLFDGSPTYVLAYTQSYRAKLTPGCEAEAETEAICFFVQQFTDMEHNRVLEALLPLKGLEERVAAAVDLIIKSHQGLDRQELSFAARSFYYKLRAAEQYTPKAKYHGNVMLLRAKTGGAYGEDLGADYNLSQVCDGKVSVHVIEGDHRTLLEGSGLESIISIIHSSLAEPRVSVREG

Row | Compound | Human FASN pIC50
1 | CC1(C)N=C(c2ccc(-c3nc4ccccc4o3)cc2)N(CC2CN(C(=O)C3CC3)C2)C1=O [Compound 12, 2-(4-(benzo[d]oxazol-2-yl)phenyl)-1-((1-(cyclopropanecarbonyl)azetidin-3-yl)methyl)-4,4-dimethyl-1H-imidazol-5(4H)-one] | ~5.37
2 | CC1(C)N=C(c2ccc(-c3cccc4ncccc34)cc2)N(CC2CN(C(=O)C3CC3)C2)C1=O [Compound 18, 1-((1-(cyclopropanecarbonyl)azetidin-3-yl)methyl)-4,4-dimethyl-2-(4-(quinolin-5-yl)phenyl)-1H-imidazol-5(4H)-one] | ~5.25
3 | CC1(C)N=C(c2ccc(-c3cnc4ccccc4c3)cc2)N(CC2CN(C(=O)C3CC3)C2)C1=O [Compound 19, 1-((1-(cyclopropanecarbonyl)azetidin-3-yl)methyl)-4,4-dimethyl-2-(4-(quinolin-3-yl)phenyl)-1H-imidazol-5(4H)-one] | 5.38
4 | CC1(C)N=C(c2ccc(-c3cccc4cnccc34)cc2F)N(CC2CN(C(=O)C3CC3)C2)C1=O [Compound 21, 1-((1-(cyclopropanecarbonyl)azetidin-3-yl)methyl)-2-(2-fluoro-4-(isoquinolin-5-yl)phenyl)-4,4-dimethyl-1H-imidazol-5(4H)-one] | 5.87
5 | CC1(C)N=C(c2ccc(-c3n[nH]c4ccccc34)cc2)N(C[C@@H]2CCN(C(=O)C3CC3)C2)C1=O [Compound 35, (R)-2-(4-(1H-indazol-3-yl)phenyl)-1-((1-(cyclopropanecarbonyl)pyrrolidin-3-yl)methyl)-4,4-dimethyl-1H-imidazol-5(4H)-one] | ~5.19
6 | CC1(C)N=C(c2ccc(-c3ccc4cncnc4c3)cc2)N(CC2CN(C(=O)C3CC3)C2)C1=O [Compound 36, 1-((1-(cyclopropanecarbonyl)azetidin-3-yl)methyl)-4,4-dimethyl-2-(4-(quinazolin-7-yl)phenyl)-1H-imidazol-5(4H)-one] | 5.43
7 | CC1(C)N=C(c2ccc(-c3ccc4ncccc4c3)cc2F)N(C[C@@H]2CCN(C(=O)C3CC3)C2)C1=O [Compound 37, (R)-1-((1-(cyclopropanecarbonyl)pyrrolidin-3-yl)methyl)-2-(2-fluoro-4-(quinolin-6-yl)phenyl)-4,4-dimethyl-1H-imidazol-5(4H)-one] | 5.86
8 | CC1(C)N=C(c2ccc(-c3ccc4ncccc4c3)cc2F)N(CC2CN(C(=O)C3CC3)C2)C1=O [Compound 38, 1-((1-(cyclopropanecarbonyl)azetidin-3-yl)methyl)-2-(2-fluoro-4-(quinolin-6-yl)phenyl)-4,4-dimethyl-1H-imidazol-5(4H)-one] | 5.05
9 | CC1(C)N=C(c2ccc(-c3n[nH]c4ccccc34)cc2F)N(CC2CN(C(=O)C3CC3)C2)C1=O [Compound 58, 1-((1-(cyclopropanecarbonyl)azetidin-3-yl)methyl)-2-(2-fluoro-4-(1H-indazol-3-yl)phenyl)-4,4-dimethyl-1H-imidazol-5(4H)-one] | 6.00
10 | CC1(C)N=C(c2ccc(-c3c[nH]c4ccccc34)cc2)N(CC2CN(C(=O)C3CC3)C2)C1=O [Compound 59, 2-(4-(1H-indol-3-yl)phenyl)-1-((1-(cyclopropanecarbonyl)azetidin-3-yl)methyl)-4,4-dimethyl-1H-imidazol-5(4H)-one] | ~5.79
11 | CC1(C)N=C(c2ccc(-c3ccc4ncccc4c3)cc2)N(C[C@@H]2CCN(C(=O)C3CC3)C2)C1=O [Compound 64, (R)-1-((1-(cyclopropanecarbonyl)pyrrolidin-3-yl)methyl)-4,4-dimethyl-2-(4-(quinolin-6-yl)phenyl)-1H-imidazol-5(4H)-one] | 5.67
12 | CC1(C(=O)N2CC[C@@H](CN3C(=O)C(C)(C)N=C3c3ccc(-c4ccc5cc(F)ccc5c4)cc3F)C2)CC1 [Compound 75, (R)-2-(2-fluoro-4-(6-fluoronaphthalen-2-yl)phenyl)-4,4-dimethyl-1-((1-(1-methylcyclopropanecarbonyl)pyrrolidin-3-yl)methyl)-1H-imidazol-5(4H)-one] | 7.26
13 | Cn1ncc2cc(-c3ccc(C4=NC(C)(C)C(=O)N4C[C@@H]4CCN(C(=O)C5(O)CC5)C4)c(F)c3)ccc21 [Compound 76, (R)-2-(2-fluoro-4-(1-methyl-1H-indazol-5-yl)phenyl)-1-((1-(1-hydroxycyclopropanecarbonyl)pyrrolidin-3-yl)methyl)-4,4-dimethyl-1H-imidazol-5(4H)-one] | 7.07
14 | CC1(C)N=C(c2ccc(-c3ccc4cc(F)ccc4c3)cc2F)N(C[C@@H]2CCN(C(=O)C3(O)CC3)C2)C1=O [Compound 88, (R)-2-(2-fluoro-4-(6-fluoronaphthalen-2-yl)phenyl)-1-((1-(1-hydroxycyclopropanecarbonyl)pyrrolidin-3-yl)methyl)-4,4-dimethyl-1H-imidazol-5(4H)-one] | 7.69
15 | Cn1cnc2cc(-c3ccc(C4=NC(C)(C)C(=O)N4C[C@@H]4CCN(C(=O)C5(O)CC5)C4)c(F)c3)ccc21 [Compound 89, (R)-2-(2-fluoro-4-(1-methyl-1H-benzo[d]imidazol-5-yl)phenyl)-1-((1-(1-hydroxycyclopropanecarbonyl)pyrrolidin-3-yl)methyl)-4,4-dimethyl-1H-imidazol-5(4H)-one] | 7.22
16 | Cn1cnc2cc(-c3ccc(C4=NC(C)(C)C(=O)N4C[C@@H]4CCN(C(=O)C5(C)CC5)C4)c(F)c3)ccc21 [Compound 90, (R)-2-(2-fluoro-4-(1-methyl-1H-benzo[d]imidazol-5-yl)phenyl)-4,4-dimethyl-1-((1-(1-methylcyclopropanecarbonyl)pyrrolidin-3-yl)methyl)-1H-imidazol-5(4H)-one] | 7.10
17 | Cc1cc(-c2ccc3c(c2)ncn3C)ccc1C1=NC(C)(C)C(=O)N1CC1CN(C(=O)C2(O)CC2)C1 [Compound 91, 1-((1-(1-hydroxycyclopropanecarbonyl)azetidin-3-yl)methyl)-4,4-dimethyl-2-(2-methyl-4-(1-methyl-1H-benzo[d]imidazol-5-yl)phenyl)-1H-imidazol-5(4H)-one] | 6.37
18 | Cc1cc(-c2ccc3c(c2)ncn3C)ccc1C1=NC(C)(C)C(=O)N1C[C@@H]1CCN(C(=O)C2(O)CC2)C1 [Compound 92, (R)-1-((1-(1-hydroxycyclopropanecarbonyl)pyrrolidin-3-yl)methyl)-4,4-dimethyl-2-(2-methyl-4-(1-methyl-1H-benzo[d]imidazol-5-yl)phenyl)-1H-imidazol-5(4H)-one] | 7.04
19 | Cn1cnc2cc(-c3ccc(C4=NC(C)(C)C(=O)N4CC4CN(C(=O)C5(C)CC5)C4)c(F)c3)ccc21 [Compound 93, 2-(2-fluoro-4-(1-methyl-1H-benzo[d]imidazol-5-yl)phenyl)-4,4-dimethyl-1-((1-(1-methylcyclopropanecarbonyl)azetidin-3-yl)methyl)-1H-imidazol-5(4H)-one] | 7.00
20 | Cn1cnc2cc(-c3ccc(C4=NC(C)(C)C(=O)N4CC4CN(C(=O)C5(O)CC5)C4)c(F)c3)ccc21 [Compound 94, 2-(2-fluoro-4-(1-methyl-1H-benzo[d]imidazol-5-yl)phenyl)-1-((1-(1-hydroxycyclopropanecarbonyl)azetidin-3-yl)methyl)-4,4-dimethyl-1H-imidazol-5(4H)-one] | 6.49
21 | Cn1cc(-c2ccc(-c3ccc(C4=NC(C)(C)C(=O)N4C[C@@H]4CCN(C(=O)C5(O)CC5)C4)c(F)c3)cc2)cn1 [Compound 95, (R)-2-(3-fluoro-4′-(1-methyl-1H-pyrazol-4-yl)-[1,1′-biphenyl]-4-yl)-1-((1-(1-hydroxycyclopropanecarbonyl)pyrrolidin-3-yl)methyl)-4,4-dimethyl-1H-imidazol-5(4H)-one] | 7.52
22 | Cc1cc(-c2ccc3cc(C#N)ccc3c2)ccc1C1=NC(C)(C)C(=O)N1CC1CN(C(=O)C2CC2)C1 [Compound 96, 6-(4-(1-((1-(cyclopropanecarbonyl)azetidin-3-yl)methyl)-4,4-dimethyl-5-oxo-4,5-dihydro-1H-imidazol-2-yl)-3-methylphenyl)-2-naphthonitrile] | 7.39
23 | CC1(C)N=C(c2ccc(-c3n[nH]c4ccccc34)cc2)N(CC2CN(C(=O)C3CC3)C2)C1=O [Compound 99, 2-(4-(1H-indazol-3-yl)phenyl)-1-((1-(cyclopropanecarbonyl)azetidin-3-yl)methyl)-4,4-dimethyl-1H-imidazol-5(4H)-one] | 5.26

same assay, conditions: 3H-acetyl-CoA and malonyl-CoA substrates, SPA, mean if tested more than once, read-out: Human FASN pIC50 (converted)

Row | Compound | IC50
24 | CC1(C)N=C(c2ccc(-c3ccc4ncccc4c3)cc2)N(CC2CN(C(=O)C3CC3)C2)C1=O [Compound 98, 1-((1-(cyclopropanecarbonyl)azetidin-3-yl)methyl)-4,4-dimethyl-2-(4-(quinolin-6-yl)phenyl)-1H-imidazol-5(4H)-one] | > 10 µM
